Each block holds one compound with its values, some of them ahead of it.
Assays:
androgen receptor = target: T1, androgen receptor (Homo sapiens, UniProt P10275); assay: PSA promoter luciferase reporter assay in 103E cells (AR transcriptional activity); conditions: for inhibition of AR activity: 50 μM, 20 h; for IC50: read-out: IC50 of AR activity, 20 h, luciferase
T1 sequence (P10275 with tags, fused parts or gaps DUP590-628/H875Y): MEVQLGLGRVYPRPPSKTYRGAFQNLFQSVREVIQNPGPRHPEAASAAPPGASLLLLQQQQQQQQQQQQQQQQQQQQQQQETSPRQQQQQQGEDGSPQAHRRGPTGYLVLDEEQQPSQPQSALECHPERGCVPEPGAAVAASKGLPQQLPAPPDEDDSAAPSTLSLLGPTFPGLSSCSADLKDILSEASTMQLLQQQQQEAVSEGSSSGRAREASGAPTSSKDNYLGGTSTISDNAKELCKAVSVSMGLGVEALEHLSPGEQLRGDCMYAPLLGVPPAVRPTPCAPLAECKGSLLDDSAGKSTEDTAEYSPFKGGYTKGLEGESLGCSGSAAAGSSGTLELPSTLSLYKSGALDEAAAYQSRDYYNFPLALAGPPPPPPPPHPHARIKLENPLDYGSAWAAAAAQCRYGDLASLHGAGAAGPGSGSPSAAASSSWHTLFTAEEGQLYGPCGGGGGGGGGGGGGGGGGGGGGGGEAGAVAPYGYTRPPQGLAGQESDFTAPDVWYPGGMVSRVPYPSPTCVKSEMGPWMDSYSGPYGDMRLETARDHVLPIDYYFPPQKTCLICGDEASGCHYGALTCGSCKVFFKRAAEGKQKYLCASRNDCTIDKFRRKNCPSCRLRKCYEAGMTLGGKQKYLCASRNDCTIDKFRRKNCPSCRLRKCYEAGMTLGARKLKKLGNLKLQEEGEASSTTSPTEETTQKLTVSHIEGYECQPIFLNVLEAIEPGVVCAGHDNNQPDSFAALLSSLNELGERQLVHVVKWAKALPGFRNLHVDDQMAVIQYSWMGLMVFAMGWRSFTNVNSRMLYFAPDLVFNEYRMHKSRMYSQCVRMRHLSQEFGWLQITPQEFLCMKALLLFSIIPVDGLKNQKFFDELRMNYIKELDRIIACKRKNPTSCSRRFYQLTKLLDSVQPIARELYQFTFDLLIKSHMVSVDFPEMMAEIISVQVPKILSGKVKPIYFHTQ
Method: PC-3 and NIH-3T3 were cultured in DMEM (Hyclone) supplemented with 10% FBS. Cultures were maintained in a humidified incubator at 37° C. in 5% CO2/air.
Cells were treated with various compounds for a period of 20 h and luciferase activity was measured using a luciferase reporter gene assay system (Promega).

LNCaP cells = assay: Cell cycle distribution by propidium iodide flow cytometry; type: cell-based, human; conditions: 48 h
Method: (§1) The cell cycle of treated cells was examined by flow cytometry after cellular staining with propidium iodide. 5×10^5 cells were seeded into 6-well multidishes with 10% FBS culture medium for 48 h. […] Cells were trypsinized thereafter, washed twice with cold PBS, and centrifuged. The pellet was suspended in cold PBS and 1 mL of 70% ethanol at 4° C. overnight, washed twice with cold PBS, and digested with RNase (100 μg/mL final concentration) and stained with propidium iodide (10 μg/mL final concentration) for 30 min and analyzed by flow cytometry (EPICS XL-MCL, Beckman Coulter, Inc., Fullerton, Calif.).

22Rv1 cells = assay: as above; type: cell-based, human; conditions: 48 h
Method: as §1

PC-3 cells = assay: as above; type: cell-based, human; conditions: 48 h
Method: as §1

Structure (SMILES): CC(C)c1cc2c(cc1O)[C@@]1(C)CCCC(C)(C)[C@H]1OC2=O [Compound 5]
- inhibition of AR activity (androgen receptor): less than 20%
- Inhibitionmax (%) of AR activity (androgen receptor; maximal inhibition at 50 μM): 19 ± 6% (50 μM)

- inhibition of AR activity (androgen receptor): 87%
- Inhibitionmax (%) of AR activity (androgen receptor; maximal inhibition at 50 μM): 87 ± 3% (50 μM)
- IC50 (androgen receptor): 22.7 µM
Structure (SMILES): C=C1CC[C@@H]2[C@](C)(CCC[C@]2(C)C(=O)O)[C@H]1CC/C(C)=C/CO [Compound 8, isocupressic acid]

Structure (SMILES): CC(C)c1cc2c(cc1O)[C@@]1(C)CCCC(C)(C)[C@@H]1CC2=O [Compound 3]
- Inhibitionmax (%) of AR activity (androgen receptor; maximal inhibition at 25 μM): 100 ± 1% (25 μM)
- IC50 (androgen receptor): 2.64 µM

Structure (SMILES): CC(C)c1cc2c(cc1O)[C@@]1(C)CCCC(C)(C)[C@@H]1C(=O)C2=O [Compound 7]
- Inhibitionmax (%) of AR activity (androgen receptor; maximal inhibition at 25 μM): 100 ± 1% (25 μM)
- IC50 (androgen receptor): 12.9 µM

Structure (SMILES): CC(O)(CS(=O)(=O)c1ccc(F)cc1)C(=O)Nc1ccc(C#N)c(C(F)(F)F)c1 (centres unmarked) [CASODEX, bicalutamide, reference compound]
- G0-G1 phase cell population (LNCaP cells; 1 μM): 62.1 ± 3.5 %
- G2-M phase cell population (LNCaP cells; 1 μM): 21.8 ± 2.0 %
- S phase cell population (LNCaP cells; 1 μM): 10.1 ± 1.7 %
- Sub-G1 phase cell population (LNCaP cells; 1 μM): 1.0 ± 0.5 %
- G0-G1 phase cell population (LNCaP cells; 10 μM): 61.3 ± 3.4 %
- G2-M phase cell population (LNCaP cells; 10 μM): 22.3 ± 1.7 %
- S phase cell population (LNCaP cells; 10 μM): 10.4 ± 1.5 %
- Sub-G1 phase cell population (LNCaP cells; 10 μM): 1.3 ± 0.8 %
- G0-G1 phase cell population (22Rv1 cells; 22Rv1, 1 μM): 53.5 ± 2.6 %
- G2-M phase cell population (22Rv1 cells; 22Rv1, 1 μM): 25.0 ± 1.6 %
- S phase cell population (22Rv1 cells; 22Rv1, 1 μM): 13.5 ± 2.3 %
- Sub-G1 phase cell population (22Rv1 cells; 22Rv1, 1 μM): 1.5 ± 1.1 %
- G0-G1 phase cell population (22Rv1 cells; 22Rv1, 10 μM): 53.0 ± 3.2 %
- G2-M phase cell population (22Rv1 cells; 22Rv1, 10 μM): 25.4 ± 1.0 %
- S phase cell population (22Rv1 cells; 22Rv1, 10 μM): 12.2 ± 1.8 %
- Sub-G1 phase cell population (22Rv1 cells; 22Rv1, 10 μM): 2.3 ± 1.8 %
- G0-G1 phase cell population (PC-3 cells; PC-3, 1 μM): 51.1 ± 3.6 %
- G2-M phase cell population (PC-3 cells; PC-3, 1 μM): 24.4 ± 2.5 %
- S phase cell population (PC-3 cells; PC-3, 1 μM): 18.5 ± 2.1 %
- Sub-G1 phase cell population (PC-3 cells; PC-3, 1 μM): 2.3 ± 1.5 %
- G0-G1 phase cell population (PC-3 cells; PC-3, 10 μM): 51.0 ± 2.1 %
- G2-M phase cell population (PC-3 cells; PC-3, 10 μM): 25.2 ± 2.1 %
- S phase cell population (PC-3 cells; PC-3, 10 μM): 19.0 ± 1.3 %
- Sub-G1 phase cell population (PC-3 cells; PC-3, 10 μM): 1.8 ± 1.4 %

Structure (SMILES): CC(C)c1cc2c(cc1O)[C@@]1(C)CCCC(C)(C)[C@@H]1CC2 [Compound 4]
- Inhibitionmax (%) of AR activity (androgen receptor; maximal inhibition at 25 μM): 100 ± 1% (25 μM)
- IC50 (androgen receptor): 12 µM

Structure (SMILES): COc1c(C(C)C)cc2c(c1O)[C@@]1(C)CCCC(C)(C)[C@@H]1CC2=O [Compound 1]
- inhibition of AR activity (androgen receptor): approximately 70%
- Inhibitionmax (%) of AR activity (androgen receptor; maximal inhibition at 50 μM): 77 ± 2% (50 μM)
- IC50 (androgen receptor): 8.62 µM

- inhibition of AR activity (androgen receptor): approximately 70%
- Inhibitionmax (%) of AR activity (androgen receptor; maximal inhibition at 50 μM): 68 ± 6% (50 μM)
- IC50 (androgen receptor): 17.6 µM
Structure (SMILES): CC(C)C1=C[C@]2(O)CC[C@H]3C(C)(C)CCC[C@]3(C)C2=CC1=O [Compound 6]

— patent US8519007B2, “Use certain diterpene compounds in the treatment of androgen receptor-associated diseases” (Academia Sinica, priority 2008, dated 2013)
